Data: ChEMBL document CHEMBL3400024, “α-Adrenoceptor antagonistic and hypotensive properties of novel arylpiperazine derivatives of pyrrolidin-2-one” (Bioorg Med Chem, 2015)
Calls of active or inactive are those of the source. The rule behind the calls is not given here.

How the values were obtained:
[1] = molecular target: T1, Adrenergic receptor alpha-1 (Rattus norvegicus, UniProt P15823+P23944+P43140); test: Displacement of [3H]prazosin from rat cerebral cortex alpha-1 adrenergic receptor by liquid scintillation counting analysis; format: tissue-based
T1 sequence (P15823 whole entry): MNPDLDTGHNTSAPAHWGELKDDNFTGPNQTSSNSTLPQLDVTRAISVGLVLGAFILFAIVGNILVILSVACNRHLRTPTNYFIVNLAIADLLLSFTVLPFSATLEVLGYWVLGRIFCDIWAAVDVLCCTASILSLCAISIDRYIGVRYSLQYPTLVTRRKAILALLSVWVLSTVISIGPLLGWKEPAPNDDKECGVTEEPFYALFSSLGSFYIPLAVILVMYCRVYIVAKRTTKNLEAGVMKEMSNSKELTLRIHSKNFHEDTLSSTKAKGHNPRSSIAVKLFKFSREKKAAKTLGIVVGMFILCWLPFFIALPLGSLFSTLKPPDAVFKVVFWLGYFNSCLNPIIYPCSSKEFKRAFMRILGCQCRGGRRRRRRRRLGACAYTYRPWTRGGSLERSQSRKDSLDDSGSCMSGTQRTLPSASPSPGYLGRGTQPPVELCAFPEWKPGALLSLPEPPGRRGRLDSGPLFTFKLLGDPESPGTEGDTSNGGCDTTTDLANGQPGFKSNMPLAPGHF
T1 sequence (P23944 whole entry): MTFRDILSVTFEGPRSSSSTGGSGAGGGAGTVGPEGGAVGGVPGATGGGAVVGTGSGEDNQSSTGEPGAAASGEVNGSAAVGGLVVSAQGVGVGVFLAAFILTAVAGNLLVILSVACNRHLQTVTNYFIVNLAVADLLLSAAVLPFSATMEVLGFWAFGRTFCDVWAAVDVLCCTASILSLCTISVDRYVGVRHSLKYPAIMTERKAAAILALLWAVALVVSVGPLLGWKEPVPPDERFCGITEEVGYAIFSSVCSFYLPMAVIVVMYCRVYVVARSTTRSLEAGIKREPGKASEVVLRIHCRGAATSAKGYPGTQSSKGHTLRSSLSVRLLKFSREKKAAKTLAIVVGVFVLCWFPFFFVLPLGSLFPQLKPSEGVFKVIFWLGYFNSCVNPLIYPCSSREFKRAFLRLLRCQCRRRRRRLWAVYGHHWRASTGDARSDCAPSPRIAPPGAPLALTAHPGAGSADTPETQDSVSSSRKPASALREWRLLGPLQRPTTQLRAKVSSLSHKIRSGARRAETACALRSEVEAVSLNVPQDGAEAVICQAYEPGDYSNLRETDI
T1 sequence (P43140 whole entry): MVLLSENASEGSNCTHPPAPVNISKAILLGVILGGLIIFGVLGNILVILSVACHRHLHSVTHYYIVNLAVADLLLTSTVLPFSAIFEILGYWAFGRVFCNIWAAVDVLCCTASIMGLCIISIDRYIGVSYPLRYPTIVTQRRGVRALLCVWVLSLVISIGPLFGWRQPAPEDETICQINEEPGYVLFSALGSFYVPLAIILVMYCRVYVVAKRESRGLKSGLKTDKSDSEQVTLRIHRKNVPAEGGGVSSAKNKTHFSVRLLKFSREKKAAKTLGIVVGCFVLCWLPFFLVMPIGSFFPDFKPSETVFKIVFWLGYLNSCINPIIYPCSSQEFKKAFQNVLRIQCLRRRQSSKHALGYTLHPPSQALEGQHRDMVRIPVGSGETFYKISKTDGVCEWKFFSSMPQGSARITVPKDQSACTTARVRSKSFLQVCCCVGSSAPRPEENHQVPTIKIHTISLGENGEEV

[2] = molecular target: T2, Alpha-1A adrenergic receptor (Homo sapiens, UniProt P35348); test: Agonist activity at alpha-1A adrenergic receptor (unknown origin) after 5 hrs by CCF4-AM staining-based cellular assay
T2 sequence (P35348 whole entry): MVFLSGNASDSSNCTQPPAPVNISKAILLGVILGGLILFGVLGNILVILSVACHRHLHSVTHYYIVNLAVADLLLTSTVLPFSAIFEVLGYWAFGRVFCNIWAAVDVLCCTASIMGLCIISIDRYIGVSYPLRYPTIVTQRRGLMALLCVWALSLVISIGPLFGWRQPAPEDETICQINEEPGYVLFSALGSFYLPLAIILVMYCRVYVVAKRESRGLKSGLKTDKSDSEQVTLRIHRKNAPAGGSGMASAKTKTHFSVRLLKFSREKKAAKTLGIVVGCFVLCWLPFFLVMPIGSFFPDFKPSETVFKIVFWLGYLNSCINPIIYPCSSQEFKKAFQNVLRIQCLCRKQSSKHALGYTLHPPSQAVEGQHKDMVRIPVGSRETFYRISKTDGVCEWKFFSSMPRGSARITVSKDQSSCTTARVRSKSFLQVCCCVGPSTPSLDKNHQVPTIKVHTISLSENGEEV

[3] = molecular target: T3, Adrenergic receptor alpha-2 (Rattus norvegicus, UniProt P22086+P19328+P22909); test: Displacement of [3H]clonidine from rat cerebral cortex alpha-2 adrenergic receptor by liquid scintillation counting analysis; format: tissue-based
T3 sequence (P22086 whole entry): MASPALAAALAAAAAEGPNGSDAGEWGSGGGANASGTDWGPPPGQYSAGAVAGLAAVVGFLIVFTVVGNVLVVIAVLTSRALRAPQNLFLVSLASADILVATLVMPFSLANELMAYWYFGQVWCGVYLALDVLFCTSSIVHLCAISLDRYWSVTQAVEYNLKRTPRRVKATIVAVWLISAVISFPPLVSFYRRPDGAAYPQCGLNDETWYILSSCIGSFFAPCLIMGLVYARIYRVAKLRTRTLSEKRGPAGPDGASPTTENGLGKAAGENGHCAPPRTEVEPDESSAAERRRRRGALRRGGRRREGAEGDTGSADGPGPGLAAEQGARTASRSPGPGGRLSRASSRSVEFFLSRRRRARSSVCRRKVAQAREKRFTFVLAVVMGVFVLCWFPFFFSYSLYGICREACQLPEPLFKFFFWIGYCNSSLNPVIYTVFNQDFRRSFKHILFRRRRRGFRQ
T3 sequence (P19328 whole entry): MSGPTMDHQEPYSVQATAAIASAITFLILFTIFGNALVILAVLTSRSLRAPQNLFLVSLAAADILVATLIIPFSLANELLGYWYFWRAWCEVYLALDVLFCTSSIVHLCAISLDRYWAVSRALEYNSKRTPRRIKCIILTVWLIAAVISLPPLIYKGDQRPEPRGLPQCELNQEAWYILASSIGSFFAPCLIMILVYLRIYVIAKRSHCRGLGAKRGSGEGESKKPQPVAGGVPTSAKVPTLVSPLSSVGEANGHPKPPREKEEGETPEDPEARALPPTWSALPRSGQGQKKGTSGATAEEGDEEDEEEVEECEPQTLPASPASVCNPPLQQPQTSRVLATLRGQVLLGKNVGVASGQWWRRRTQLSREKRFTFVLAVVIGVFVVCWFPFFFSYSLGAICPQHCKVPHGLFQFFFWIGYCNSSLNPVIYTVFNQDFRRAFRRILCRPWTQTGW
T3 sequence (P22909 whole entry): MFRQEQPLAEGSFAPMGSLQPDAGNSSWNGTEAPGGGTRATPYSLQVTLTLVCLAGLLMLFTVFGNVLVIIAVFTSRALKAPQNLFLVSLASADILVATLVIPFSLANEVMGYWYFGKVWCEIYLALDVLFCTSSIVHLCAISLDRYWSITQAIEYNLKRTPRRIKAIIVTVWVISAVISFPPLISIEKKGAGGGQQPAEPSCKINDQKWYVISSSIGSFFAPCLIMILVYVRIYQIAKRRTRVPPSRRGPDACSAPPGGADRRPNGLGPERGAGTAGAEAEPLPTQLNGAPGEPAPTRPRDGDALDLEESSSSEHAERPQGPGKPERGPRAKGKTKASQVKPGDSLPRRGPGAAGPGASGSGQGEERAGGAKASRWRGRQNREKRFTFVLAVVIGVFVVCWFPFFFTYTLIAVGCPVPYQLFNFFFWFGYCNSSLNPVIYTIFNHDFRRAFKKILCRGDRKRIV

[4] = molecular target: T2, Alpha-1A adrenergic receptor; test: Antagonist activity at alpha-1A adrenergic receptor (unknown origin) incubated for 30 mins prior to agonist addition measured after 5 hrs by CCF4-AM staining-based cellular assay
[5] = molecular target: T4, Alpha-1B adrenergic receptor (Homo sapiens, UniProt P35368); test: Antagonist activity at alpha-1B adrenergic receptor (unknown origin) incubated for 30 mins prior to agonist addition measured after 5 hrs by CCF4-AM staining-based cellular assay
T4 sequence (P35368 whole entry): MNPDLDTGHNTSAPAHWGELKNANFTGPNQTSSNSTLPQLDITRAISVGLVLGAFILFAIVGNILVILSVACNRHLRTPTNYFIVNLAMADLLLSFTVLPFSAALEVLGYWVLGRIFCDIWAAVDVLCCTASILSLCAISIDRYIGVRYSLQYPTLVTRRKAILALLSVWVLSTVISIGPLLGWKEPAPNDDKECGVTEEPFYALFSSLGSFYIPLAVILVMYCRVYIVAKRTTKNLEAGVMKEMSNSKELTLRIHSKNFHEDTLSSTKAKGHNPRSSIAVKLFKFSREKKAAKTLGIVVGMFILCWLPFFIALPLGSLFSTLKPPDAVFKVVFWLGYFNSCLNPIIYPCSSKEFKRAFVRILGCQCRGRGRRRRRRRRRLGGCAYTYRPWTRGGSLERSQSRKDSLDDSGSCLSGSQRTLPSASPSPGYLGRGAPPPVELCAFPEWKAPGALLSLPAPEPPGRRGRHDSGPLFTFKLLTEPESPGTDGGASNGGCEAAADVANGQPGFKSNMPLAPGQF

Rattus norvegicus [6] = test: Hypotensive activity in normotensive anesthetized Wistar rat assessed as reduction of diastolic pressure at 1 to 5 mg/kg, iv measured up to 60 mins; format: functional, organism-based
Rattus norvegicus [7] = test: Hypotensive activity in normotensive anesthetized Wistar rat assessed as reduction of systolic pressure at 1 to 5 mg/kg, iv measured up to 60 mins; format: functional, organism-based
[8] = molecular target: T5, Adrenergic receptor alpha-1 (Homo sapiens, UniProt P35348+P25100+P35368); test: Binding affinity to alpha-1 adrenergic receptor (unknown origin)
T5 sequence (P35348 whole entry): T2 sequence (P35348 whole entry)
T5 sequence (P25100 whole entry): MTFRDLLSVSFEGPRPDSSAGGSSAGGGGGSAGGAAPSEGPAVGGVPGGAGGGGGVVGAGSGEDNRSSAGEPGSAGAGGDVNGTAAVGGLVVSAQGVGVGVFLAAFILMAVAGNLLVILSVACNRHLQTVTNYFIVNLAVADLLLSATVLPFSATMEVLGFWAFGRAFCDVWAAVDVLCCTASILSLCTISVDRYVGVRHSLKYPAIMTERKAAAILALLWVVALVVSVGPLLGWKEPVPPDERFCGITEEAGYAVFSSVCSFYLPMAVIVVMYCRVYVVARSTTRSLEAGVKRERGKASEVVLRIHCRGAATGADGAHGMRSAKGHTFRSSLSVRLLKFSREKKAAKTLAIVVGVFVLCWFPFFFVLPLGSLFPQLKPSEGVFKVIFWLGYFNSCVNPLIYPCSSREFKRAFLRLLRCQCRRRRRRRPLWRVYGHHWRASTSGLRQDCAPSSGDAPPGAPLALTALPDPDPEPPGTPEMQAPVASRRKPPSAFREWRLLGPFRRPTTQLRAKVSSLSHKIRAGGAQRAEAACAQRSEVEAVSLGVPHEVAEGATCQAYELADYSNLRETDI
T5 sequence (P35368 whole entry): T4 sequence (P35368 whole entry)

Compound | pKi [1] | EC50 [2] | pKi [3] | EC50 [4] | EC50 [5] [nM] | Activity (Rattus norvegicus [6]) | Activity (Rattus norvegicus [7]) | EC50 ([4]; read-out: EC50) [nM] | pKi [8]
Cl.O=C1CCCN1CCCCN1CCN(c2ccccc2O)CC1 | 6.44 | Not Active | < 5 | Not Active | 165 | – | – | – | –
Cc1ccccc1N1CCN(CCN2CCCC2=O)CC1.Cl | 6.09 | – | 5.92 | – | – | – | – | – | –
Cl.O=C1CCCN1CCCCN1CCN(c2ccccc2Cl)CC1 | 7.3 | – | 6.01 | – | 2.53 | Active | Active | 138 | –
Cl.O=C1CCCN1CCN1CCN(c2ccc(Cl)cc2)CC1 | 5.51 | – | < 5 | – | – | – | – | – | –
O=C1CCCN1CCN1CCN(c2ccccc2Cl)CC1 | – | – | – | – | – | – | – | – | 7.13
Cl.O=C1CCCN1CCCCN1CCN(C(c2ccc(F)cc2)c2ccc(F)cc2)CC1 | 7.07 | – | 5.92 | – | 131 | – | – | 329 | –
COc1ccccc1N1CCN(CCN2CCCC2=O)CC1.Cl | < 5 | – | < 5 | – | – | – | – | – | –
Cc1ccccc1N1CCN(CCCCN2CCCC2=O)CC1.Cl | 7.14 | Not Active | 6.05 | Not Active | 3.5 | Active | Active | – | –
Cl.O=C1CCCN1CCN1CCN(C(c2ccc(F)cc2)c2ccc(F)cc2)CC1 | 6.43 | – | 6.01 | – | – | – | – | – | –
Cc1ccccc1N1CCN(CCN2CCCC2=O)CC1 | – | – | – | – | – | – | – | – | 7.05
Cl.O=C1CCCN1CCCCN1CCN(c2ccc(F)cc2F)CC1 | 6.77 | Not Active | < 5 | Not Active | 46.9 | – | – | – | –
COc1ccc(N2CCN(CCCCN3CCCC3=O)CC2)cc1.Cl | < 5 | – | < 5 | – | – | – | – | – | –
Cl.O=C1CCCN1CCCCN1CCN(C(c2ccccc2)c2ccccc2)CC1 | 6.65 | Not Active | < 5 | Not Active | 289 | – | – | – | –
COc1ccc(N2CCN(CCN3CCCC3=O)CC2)cc1.Cl | 5.92 | – | < 5 | – | – | – | – | – | –
